Results on 22 molecules are retold here after patent publication US20220306691A1, “THERAPEUTIC PEPTIDES” (COHBAR, INC., priority 2019, published 2022).

One data set concerns 3T3-L1 adipocytes. Description: Free fatty acid levels in cultured 3T3-L1 adipocytes stimulated with isoproterenol. To be noted: for Free Fatty Acid Levels, Percent of Control Value (Percent Isoproterenol Control): test peptides 25 μM, 20-22 hours then 3 hours with isoproterenol (1 nM).
Data set [1] relates to MDA-MB-231 cells. As to the kind of experiment: Caspase 3/7 activity (Caspase-Glo 3/7) in MDA-MB-231 cells. The class given is cell-based, human. As to conditions: test peptides at 10 μM, 18 hours, relative to DMSO control. Here is the method: The effect of the peptides on cell death/survival can be assessed using a caspase-3 assay. Peptides were dissolved with DMSO at 10 mM stock. […] Staurosporine (Selleckchem) was dissolved with DMSO at 1 mM stock. Caspase-Glo 3/7 Assay Reagent was purchased from Promega (Madison, Wis.). MDA-MB-231 human breast cancer cell line was purchased from American Type Culture Collection (Manassas, Va.). MDA-MB-231 cells were grown in DMEM Medium supplemented with 10% FBS. 100 μg/ml penicillin and 100 μg/ml streptomycin were added to the culture medium. […] 25 μl of Caspase-Glo 3/7 Assay Reagent was added to each well and incubated at 37° C., 5% CO2 for 1 hour. Luminescence for each sample well on the plate was measured by Envision 2104 Multilabel Reader (PerkinElmer, Santa Clara, Calif.). Activity was calculated relative to DMSO control.

The next data set has as its system MCF-7 cells. As to the kind of experiment: Cell viability, MTS assay in MCF-7 cells. To be noted: for MTS Assay (cell viability), Percent of Control Activity: human, 72 hours, 10 µM. How it is done:
Peptides and reference compound staurosporine (Selleckchem) were dissolved with DMSO at 10 mM stock. CellTiter 96® AQueous One Solution Reagent (MTS assay reagent) was purchased from Promega (Madison, Wis.). MCF-7 human breast cancer cell line was purchased from American Type Culture Collection (Manassas, Va.). MCF-7 cells were grown in EMEM Medium supplemented with 10% FBS and 0.01 mg/ml human recombinant insulin. 100 μg/ml penicillin and 100 μg/ml streptomycin were added to the culture medium. […] 5 μl of CellTiter 96® AQueous One Solution Reagent (MTS assay reagent) was added to each well and incubated at 37° C., 5% CO2 for 5 hours. Absorbance at 492 nm was recorded by Envision 2104 Multilabel Reader. Treatment with DMSO alone was used as the cell viability activity control.
Background: Formazan colour is commonly taken as a measure of viable cells.

Data set [2] deals with MDA-MB-231 cells. As to the kind of experiment: Cell viability, MTS assay in MDA-MB-231 cells. The class given is cell-based, human. As to conditions: for MTS Assay (cell viability), Percent of Control Activity: human, 72 hours. How it is done: Test compounds and reference compound staurosporine (Selleckchem) were all dissolved with DMSO at 10 mM stock. […] Activity was calculated relative to DMSO control. […] Cell viability was 3% of the DMSO control value for Staurosporine (10 uM).

Where a SMILES comes first, the peptide text is derived from it. Where no end group is shown, it is not given here. [ ]: non-standard residue; d: D form.

Method for 3T3-L1 adipocytes: Mouse 3T3-L1 adipocytes were seeded at 3,000 cells per well in 96-well plates in Pre-adipocyte Medium (Zen-Bio, Durham, N.C.) and grown to confluence at 37° C. in a humidified atmosphere of 5% CO2/95% air. Two days after confluence, cells were placed in Adipocyte Differentiation Medium (Zen-Bio, Durham, N.C.) and cultured for three additional days at 37° C. in a humidified atmosphere of 5% CO2/95% air. The culture media was then replaced with Adipocyte Maintenance Medium (Zen-Bio) and the cells maintained for an additional 9-12 days at 37° C. in a humidified atmosphere of 5% CO2/95% air with partial medium replacement every other day. Following 12-15 days' differentiation, test peptides were added to a final concentration of 25 μM and incubated for 20-22 hours in Adipocyte Maintenance Medium. After 20-22 hours, isoproterenol (1 nM) was added to all wells except untreated controls and test peptides were replenished. Cells were incubated for a further 3 hours in Assay Buffer (Zen-Bio). Free fatty acid concentrations in the media were determined using a Free Fatty Acid Assay Kit (Zen-Bio) according to the manufacturer's instructions using a plate reader (540 nm). Absorbance values were corrected for untreated background and expressed relative to isoproterenol treated cells. Treatment with isoproterenol (1 nM) alone was used as the free fatty acid level stimulatory control. The relative standard deviation of the isoproterenol control was <10%.

On to MVITFIWSCTKIFGA [compound 22], for which, in the data set with 3T3-L1 adipocytes, the “Free Fatty Acid Levels, Percent of Control Value (Percent Isoproterenol Control)” value (shortened to “Free Fatty Acid Levels, Percent”) amounted to 133%. In addition, the “Caspase 3/7 Activity, Percent of Control Activity” value (shortened to “Caspase 3/7 Activity, Percent”) in the data set with MDA-MB-231 cells [1] is recorded as 69%. The “MTS Assay (cell viability), Percent of Control Activity” value (“MTS Assay (cell viability), Percent” for short) turned out to be 58% in the data set on MCF-7 cells and 81% with MDA-MB-231 cells [2]. For the molecule MVHHRILTVIYKLRPKH [compound 17], in the data set on 3T3-L1 adipocytes, the “Free Fatty Acid Levels, Percent” value is 88%. The “Caspase 3/7 Activity, Percent” value with MDA-MB-231 cells [1] came out at 74%. In addition, the “MTS Assay (cell viability), Percent” value is reported as 60% in the data set with MCF-7 cells and 82% with MDA-MB-231 cells [2]. In the case of MNIVVGKRLIIKVDATMDFT [compound 7], the “Free Fatty Acid Levels, Percent” value in the data set on 3T3-L1 adipocytes was determined as 94%. The “Caspase 3/7 Activity, Percent” value with MDA-MB-231 cells [1] was 73%. The entries for the “MTS Assay (cell viability), Percent” value in the data set with MCF-7 cells and in the data set with MDA-MB-231 cells [2] were 59% and 75%, respectively. As to 13 (WWVSEPHCVVVNM) [compound 13], the “Free Fatty Acid Levels, Percent” value in the data set with 3T3-L1 adipocytes is listed as 109%. As to 19 (HHRILTVIYKLRPKH) [compound 19], the “Free Fatty Acid Levels, Percent” value in the data set with 3T3-L1 adipocytes was 78%. Consider 18 (VHHRILTVIYKLRPKH) [compound 18], for which the “Free Fatty Acid Levels, Percent” value in the data set on 3T3-L1 adipocytes is 75%.

For the molecule 20 (HRILTVIYKLRP[dA]H) [compound 20], the “Free Fatty Acid Levels, Percent” value with 3T3-L1 adipocytes worked out at 27%. As for `CN[C@@H]1C[C@H]2O[C@@](C)([C@@H]1OC)n1c3ccccc3c3c4c(c5c6ccccc6n2c5c31)C(=O)NC4` [staurosporine, reference compound], the “Cell viability, % of the background corrected DMSO control value” in the data set on MCF-7 cells (MCF-7 cells, staurosporine 10 uM, positive control) was less than 5%. In addition, the “Cell viability, % of the DMSO control value” with MDA-MB-231 cells [2] (MDA-MB-231 cells, Staurosporine 10 uM, positive control) was 3%. As for “5 ([dA]CFRCEIVVGSWCWSLS; cysteine pairing not given here) [compound 5]”, in the data set with 3T3-L1 adipocytes, the “Free Fatty Acid Levels, Percent” value turned out to be 113%. For the molecule “10 (NIVV[dA]KRLIIKVDATMDFT) [compound 10]”, the “Free Fatty Acid Levels, Percent” value in the data set on 3T3-L1 adipocytes amounted to 91%. Turning to 15 (WVSEPHCVVVN) [compound 15], the “Free Fatty Acid Levels, Percent” value with 3T3-L1 adipocytes turned out to be 97%. For the molecule 14 (WWVSEPHCVVVN) [compound 14], the “Free Fatty Acid Levels, Percent” value in the data set with 3T3-L1 adipocytes came out at 102%. In the case of 9 (NIVVGKRLIIKVD[dA]TMDFT) [compound 9], the “Free Fatty Acid Levels, Percent” value in the data set on 3T3-L1 adipocytes worked out at 103%. For 23 (VITFIWSCTKIFGA) [compound 23], the “Free Fatty Acid Levels, Percent” value in the data set on 3T3-L1 adipocytes is listed as 128%.

Turning to `CC[C@H](C)[C@H](NC(=O)[C@H](CCC(=O)O)NC(=O)[C@H](CS)NC(=O)[C@H](CCCNC(=N)N)NC(=O)[C@H](Cc1ccccc1)NC(=O)[C@H](CS)NC(=O)[C@H](C)NC(=O)[C@H](CC(C)C)NC(=O)[C@@H](N)CCSC)C(=O)N[C@H](C(=O)N[C@H](C(=O)NCC(=O)N[C@@H](CO)C(=O)N[C@@H](Cc1c[nH]c2ccccc12)C(=O)N[C@@H](CS)C(=O)N[C@@H](Cc1c[nH]c2ccccc12)C(=O)N[C@@H](CO)C(=O)N[C@@H](CC(C)C)C(=O)N[C@@H](CO)C(=O)O)C(C)C)C(C)C` [compound 2] (H-MLACFRCEIVVGSWCWSLS-OH; N-terminus and C-terminus assumed), the “Free Fatty Acid Levels, Percent” value in the data set on 3T3-L1 adipocytes came to 114%. In addition, in the data set with MDA-MB-231 cells [1], the “Caspase 3/7 Activity, Percent” value is given as 95%. Moreover, the “MTS Assay (cell viability), Percent” value is given as 55% in the data set on MCF-7 cells and 78% in the data set with MDA-MB-231 cells [2]. Turning to 25 (VITFIWSCTKIF) [compound 25], in the data set with 3T3-L1 adipocytes, the “Free Fatty Acid Levels, Percent” value is 115%. “4 (ACFRCEIVVGSWCWSLS; not fully specified; cysteine pairing not given here) [compound 4]”: the “Free Fatty Acid Levels, Percent” value in the data set on 3T3-L1 adipocytes amounted to 116%. Turning to Insulin [reference compound], the “Free fatty acid levels, % of the isoproterenol control value” in the data set on 3T3-L1 adipocytes (insulin 100 nM, positive control) is given as less than 5%.

For 3 (LACFRCEIVVGSWCWSLS) [compound 3], the “Free Fatty Acid Levels, Percent” value in the data set with 3T3-L1 adipocytes is listed as 109%. Regarding 24 (VITFIWSCTKIFG) [compound 24], the “Free Fatty Acid Levels, Percent” value with 3T3-L1 adipocytes is 90%. Same read-out and setting: as for “8 (NIVVGKRLIIKVDATMDFT; not fully specified) [compound 8]”, the figure is 81%.

For the molecule MWWVSEPHCVVVNM [compound 12], in the data set on 3T3-L1 adipocytes, the “Free Fatty Acid Levels, Percent” value was found to be 112%. For the same molecule, the “Caspase 3/7 Activity, Percent” value with MDA-MB-231 cells [1] was 56%. Further, the results for the “MTS Assay (cell viability), Percent” value with MCF-7 cells and with MDA-MB-231 cells [2] were 63% and 78%, respectively.
